# Experimental data published in patent publication US5877320A, “Process for the preparation of organotin compounds useful as cytotoxic agents” (priority 1995, dated 1999).
# Legend:
# [1] = system: A498; assay: In-vitro cytotoxicity [ID50] against A498 (renal cancer); assay type: cell-based, human; conditions: NCI-USA protocol
# From the text: (§1) The in-vitro cytotoxicity determined in terms of inhibition dose [ID50 ] of compounds having the formulae 8-11 prepared by the process of the present invention against […] different human cancer cell lines namely MCF7, EVSAT (Breast Cancer), WIDR (Colon Cancer), IGROV (Ovarian Cancer), M19MEL (Melanoma), A498 (Renal Cancer) and H226 (Nonsmall cell lung Cancer) have been measured following NCI-USA protocol [M. R. Boyd, "Status of the NCI preclinical antitumour drug discovery screen. Principles & practice of oncology 3, pp. 1-12 (1989)] alongwith the latest ID50 values of inorganic cancer drugs are presented in Table 1.
# [2] = system: MCF7; assay: In-vitro cytotoxicity [ID50] against MCF7 (breast cancer); assay type: cell-based, human; conditions: NCI-USA protocol
# From the text: as §1
# [3] = system: EVSAT; assay: In-vitro cytotoxicity [ID50] against EVSAT (breast cancer); assay type: cell-based, human; conditions: NCI-USA protocol
# From the text: as §1
# [4] = system: H226; assay: In-vitro cytotoxicity [ID50] against H226 (nonsmall cell lung cancer); assay type: cell-based, human; conditions: NCI-USA protocol
# From the text: as §1
# [5] = system: WIDR; assay: In-vitro cytotoxicity [ID50] against WIDR (colon cancer); assay type: cell-based, human; conditions: NCI-USA protocol
# From the text: as §1
# [6] = system: IGROV; assay: In-vitro cytotoxicity [ID50] against IGROV (ovarian cancer); assay type: cell-based, human; conditions: NCI-USA protocol
# From the text: as §1
# [7] = system: M19MEL; assay: In-vitro cytotoxicity [ID50] against M19MEL (melanoma); assay type: cell-based, human; conditions: NCI-USA protocol
# From the text: as §1
# [8] = system: P388 lymphocytic leukemia; conditions: in words; literature; cited from earlier work
compound,measurement,setting,value
"N.N.[Cl][Pt][Cl] [cis-platin, reference compound]",Anti-tumour activity [ID50],[1],1.2 µg/mL
same,Anti-tumour activity [ID50],[2],1.4 µg/mL
same,Anti-tumour activity [ID50],[3],0.92 µg/mL
same,Anti-tumour activity [ID50],[4],3.158 µg/mL
same,Anti-tumour activity [ID50],[5],1.55 µg/mL
same,Anti-tumour activity [ID50],[6],0.227 µg/mL
same,Anti-tumour activity [ID50],[7],0.78 µg/mL
bis(indole) complex of dibenzyltindichloride [compound 8],Anti-tumour activity [ID50],[1],0.2 µg/mL
same,Anti-tumour activity [ID50],[2],0.15 µg/mL
same,Anti-tumour activity [ID50],[3],0.15 µg/mL
same,Anti-tumour activity [ID50],[4],0.2 µg/mL
same,Anti-tumour activity [ID50],[5],0.85 µg/mL
same,Anti-tumour activity [ID50],[6],0.11 µg/mL
same,Anti-tumour activity [ID50],[7],0.4 µg/mL
dibenzyl(phenanthroline)-tindichloride,activity against P388 in mice,[8],inactive
[Cl][Sn]([Cl])([c]1ccccc1)[CH]1CCCCC1 [cyclohexyl-(phenyl)tindichloride],activity against P388 in mice,[8],inhibition of P-388 in mice
"N.N.O=C([O-])C1(C(=O)[O-])CCC1.[Pt+2] [Carboplatin, reference compound]",Anti-tumour activity [ID50],[1],18 µg/mL
same,Anti-tumour activity [ID50],[2],10.5 µg/mL
same,Anti-tumour activity [ID50],[3],4.5 µg/mL
same,Anti-tumour activity [ID50],[4],25 µg/mL
same,Anti-tumour activity [ID50],[5],3.5 µg/mL
same,Anti-tumour activity [ID50],[6],2.4 µg/mL
same,Anti-tumour activity [ID50],[7],5.5 µg/mL
bipyridine complex of dibenzyltindichloride [compound 11],Anti-tumour activity [ID50],[1],0.16 µg/mL
same,Anti-tumour activity [ID50],[2],0.12 µg/mL
same,Anti-tumour activity [ID50],[3],0.15 µg/mL
same,Anti-tumour activity [ID50],[4],0.35 µg/mL
same,Anti-tumour activity [ID50],[5],0.8 µg/mL
same,Anti-tumour activity [ID50],[6],0.08 µg/mL
same,Anti-tumour activity [ID50],[7],0.32 µg/mL
bis(thiophene) complex of dibenzyltindichloride [compound 9],Anti-tumour activity [ID50],[1],0.11 µg/mL
same,Anti-tumour activity [ID50],[2],0.068 µg/mL
same,Anti-tumour activity [ID50],[3],0.13 µg/mL
same,Anti-tumour activity [ID50],[4],0.4 µg/mL
same,Anti-tumour activity [ID50],[5],0.55 µg/mL
same,Anti-tumour activity [ID50],[6],0.05 µg/mL
same,Anti-tumour activity [ID50],[7],0.25 µg/mL
bis(imidazole) complex of dibenzyltindichloride [compound 10],Anti-tumour activity [ID50],[1],1 µg/mL
same,Anti-tumour activity [ID50],[2],0.7 µg/mL
same,Anti-tumour activity [ID50],[3],0.4 µg/mL
same,Anti-tumour activity [ID50],[4],1.3 µg/mL
same,Anti-tumour activity [ID50],[5],3.2 µg/mL
same,Anti-tumour activity [ID50],[6],3.2 µg/mL
same,Anti-tumour activity [ID50],[7],1.5 µg/mL
